Patent US20230265116A1, “DEGRADATION OF (EGFR) BY CONJUGATION OF EGFR INHIBITORS WITH E3 LIGASE LIGAND AND METHODS OF USE” (BEIGENE, LTD., priority 2020, published 2023)

What was measured:
Type in all cases: cell-based
EGFR (HCC827 cells) = molecular target: T1, EGFR (HCC827 cells) (Homo sapiens, UniProt P00533, DEL746-750); assay: EGFR degradation HTRF assay, HCC827 cells; conditions: HCC827, 16h treatment; for Dmax: maximum percentage of degradation
T1 construct: endogenous in cells; host or cells: HCC827
T1 sequence (P00533 with tags, fused parts or gaps DEL746-750): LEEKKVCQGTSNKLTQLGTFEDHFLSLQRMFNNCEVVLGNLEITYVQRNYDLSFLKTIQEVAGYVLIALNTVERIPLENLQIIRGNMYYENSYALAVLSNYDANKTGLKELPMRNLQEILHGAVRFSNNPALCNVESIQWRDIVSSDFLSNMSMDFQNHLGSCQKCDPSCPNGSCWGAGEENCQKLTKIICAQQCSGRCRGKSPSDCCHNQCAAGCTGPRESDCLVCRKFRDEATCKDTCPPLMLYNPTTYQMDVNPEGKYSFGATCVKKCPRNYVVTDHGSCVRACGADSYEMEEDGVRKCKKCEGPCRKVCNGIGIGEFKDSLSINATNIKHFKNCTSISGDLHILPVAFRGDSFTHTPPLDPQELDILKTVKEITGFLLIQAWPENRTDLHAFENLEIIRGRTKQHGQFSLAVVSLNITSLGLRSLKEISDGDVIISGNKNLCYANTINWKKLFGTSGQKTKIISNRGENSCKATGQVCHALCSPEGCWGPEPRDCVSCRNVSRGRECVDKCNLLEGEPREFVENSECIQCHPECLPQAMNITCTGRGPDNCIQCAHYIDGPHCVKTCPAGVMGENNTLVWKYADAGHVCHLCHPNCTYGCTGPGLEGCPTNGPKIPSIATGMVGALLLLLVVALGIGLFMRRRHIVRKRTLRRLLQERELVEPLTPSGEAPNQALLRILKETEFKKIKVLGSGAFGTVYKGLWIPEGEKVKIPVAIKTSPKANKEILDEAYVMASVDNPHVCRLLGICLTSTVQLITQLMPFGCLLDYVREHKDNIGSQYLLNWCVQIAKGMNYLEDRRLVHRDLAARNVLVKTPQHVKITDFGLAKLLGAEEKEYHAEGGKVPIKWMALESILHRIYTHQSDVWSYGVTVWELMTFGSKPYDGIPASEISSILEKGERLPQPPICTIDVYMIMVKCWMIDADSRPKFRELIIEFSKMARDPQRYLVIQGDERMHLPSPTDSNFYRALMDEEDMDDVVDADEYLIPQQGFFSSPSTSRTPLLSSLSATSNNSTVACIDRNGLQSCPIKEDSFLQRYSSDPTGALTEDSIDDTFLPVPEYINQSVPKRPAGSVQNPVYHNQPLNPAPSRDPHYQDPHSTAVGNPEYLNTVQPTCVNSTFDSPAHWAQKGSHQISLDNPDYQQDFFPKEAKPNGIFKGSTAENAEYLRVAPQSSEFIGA
Procedure, shortened: (§1)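 BaF3 (WT, Del19/T790M/C797S) and HCC827 cells exposed 16 h at 37 °C, 5% CO2 to compounds in 0.2% DMSO medium, 8 doses from 10 uM top, 5-fold steps. Lysates read by HTRF (665/620 nm); degradation % vs DMSO control, DC50 from four-parameter fit, Dmax as maximal degradation.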

[1] = test system: EGFR Del19/T790M/C797S (BaF3-DTC cells); assay: EGFR degradation HTRF assay, BaF3-DTC cells; conditions: 16h treatment; for DTC Dmax (%): maximum percentage of degradation; for DC50: read-out: DTC DC50
Procedure, shortened: as §1

[2] = molecular target: T2, EGFR L858R/T790M/C797S (BaF3-LTC cells) (Homo sapiens, UniProt P00533, C797S/L858R/T790M); assay: EGFR degradation HTRF assay, BaF3-LTC cells; conditions: BaF3-LTC, 16h treatment; for Dmax: maximum percentage of degradation, read-out: LTC Dmax (%); for DC50: read-out: LTC DC50
T2 construct: expressed in transfected cells; host or cells: BaF3
T2 sequence (P00533 25-1210 T790M/C797S/L858R): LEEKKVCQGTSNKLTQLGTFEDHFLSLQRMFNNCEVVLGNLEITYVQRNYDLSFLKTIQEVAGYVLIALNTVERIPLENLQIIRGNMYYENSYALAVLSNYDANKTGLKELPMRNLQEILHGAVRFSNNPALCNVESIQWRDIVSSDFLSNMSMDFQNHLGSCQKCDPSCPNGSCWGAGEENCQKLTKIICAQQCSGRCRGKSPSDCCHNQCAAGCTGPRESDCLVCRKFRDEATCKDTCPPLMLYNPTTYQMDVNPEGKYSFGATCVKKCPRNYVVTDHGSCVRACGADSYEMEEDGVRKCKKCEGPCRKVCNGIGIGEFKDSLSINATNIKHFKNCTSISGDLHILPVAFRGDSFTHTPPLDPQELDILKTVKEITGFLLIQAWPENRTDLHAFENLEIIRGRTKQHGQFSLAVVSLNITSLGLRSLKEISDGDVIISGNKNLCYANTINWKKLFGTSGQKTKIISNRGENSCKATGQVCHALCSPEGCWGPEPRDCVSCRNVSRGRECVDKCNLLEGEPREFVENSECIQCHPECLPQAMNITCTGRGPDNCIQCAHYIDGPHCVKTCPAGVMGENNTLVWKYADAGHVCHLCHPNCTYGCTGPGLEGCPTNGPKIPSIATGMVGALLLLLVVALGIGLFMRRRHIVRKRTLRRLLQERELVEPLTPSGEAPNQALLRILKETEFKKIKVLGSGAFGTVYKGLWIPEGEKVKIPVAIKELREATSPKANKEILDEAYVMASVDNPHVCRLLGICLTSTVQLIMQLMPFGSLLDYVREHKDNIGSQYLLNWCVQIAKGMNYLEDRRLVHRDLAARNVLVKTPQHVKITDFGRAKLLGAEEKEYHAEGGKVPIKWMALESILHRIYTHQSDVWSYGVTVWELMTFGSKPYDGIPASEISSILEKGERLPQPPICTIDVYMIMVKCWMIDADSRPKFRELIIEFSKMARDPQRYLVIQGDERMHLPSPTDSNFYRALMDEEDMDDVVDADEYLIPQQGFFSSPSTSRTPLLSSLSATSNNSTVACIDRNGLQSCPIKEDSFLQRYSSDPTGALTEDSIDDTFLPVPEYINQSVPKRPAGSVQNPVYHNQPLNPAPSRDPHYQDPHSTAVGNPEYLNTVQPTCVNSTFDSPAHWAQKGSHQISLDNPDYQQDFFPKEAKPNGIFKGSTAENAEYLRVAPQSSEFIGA
Procedure, shortened: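 EGFR remaining after a 16 h, 37 °C exposure (8 doses, 5-fold steps from 10 uM final, 0.2% DMSO) was quantified by HTRF antibodies in cell lysate. Percent inhibition relative to DMSO control was fitted by four-parameter logistic to give DC50; Dmax denotes maximal degradation.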

[3] = molecular target: T3, EGFR L858R/T790M (H1975-clone #36, homozygous) (Homo sapiens, UniProt P00533, L858R/T790M); assay: EGFR degradation HTRF assay, H1975-clone #36 cells; conditions: H1975 #36, 16h treatment; for Dmax: NCI-H1975, maximum percentage of degradation
T3 construct: designed to specifically target WT EGFR but preserve the L858R/T790M copy; host or cells: H1975-clone #36
T3 sequence (P00533 25-1210 T790M/L858R): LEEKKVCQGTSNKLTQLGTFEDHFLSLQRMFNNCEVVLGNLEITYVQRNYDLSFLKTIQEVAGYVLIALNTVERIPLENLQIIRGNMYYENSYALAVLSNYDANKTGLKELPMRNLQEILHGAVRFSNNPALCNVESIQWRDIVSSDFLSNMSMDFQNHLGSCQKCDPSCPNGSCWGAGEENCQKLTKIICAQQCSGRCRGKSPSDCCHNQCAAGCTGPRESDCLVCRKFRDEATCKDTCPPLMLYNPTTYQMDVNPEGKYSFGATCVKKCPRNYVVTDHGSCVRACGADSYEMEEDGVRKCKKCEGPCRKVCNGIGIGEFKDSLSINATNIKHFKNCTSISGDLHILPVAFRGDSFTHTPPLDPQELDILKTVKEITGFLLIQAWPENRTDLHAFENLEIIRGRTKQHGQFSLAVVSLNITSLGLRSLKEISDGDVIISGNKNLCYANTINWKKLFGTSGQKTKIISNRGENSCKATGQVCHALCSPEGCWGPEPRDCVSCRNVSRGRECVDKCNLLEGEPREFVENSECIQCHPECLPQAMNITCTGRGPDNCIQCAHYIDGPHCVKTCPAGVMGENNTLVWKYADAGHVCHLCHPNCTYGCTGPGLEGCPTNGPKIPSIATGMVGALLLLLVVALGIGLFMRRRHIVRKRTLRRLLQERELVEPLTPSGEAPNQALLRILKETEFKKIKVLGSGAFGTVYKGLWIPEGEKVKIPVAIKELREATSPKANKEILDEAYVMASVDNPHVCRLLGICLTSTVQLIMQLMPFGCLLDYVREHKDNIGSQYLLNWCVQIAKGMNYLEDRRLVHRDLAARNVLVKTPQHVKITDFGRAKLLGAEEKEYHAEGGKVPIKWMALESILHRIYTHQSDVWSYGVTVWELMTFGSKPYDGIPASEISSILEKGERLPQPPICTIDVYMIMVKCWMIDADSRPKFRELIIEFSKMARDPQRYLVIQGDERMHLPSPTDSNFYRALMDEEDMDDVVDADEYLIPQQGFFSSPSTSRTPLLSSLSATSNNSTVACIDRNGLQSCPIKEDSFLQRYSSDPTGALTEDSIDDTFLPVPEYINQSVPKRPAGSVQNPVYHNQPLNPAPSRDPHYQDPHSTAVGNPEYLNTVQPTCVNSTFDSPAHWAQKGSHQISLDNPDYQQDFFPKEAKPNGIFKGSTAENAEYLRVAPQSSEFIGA
Procedure, shortened: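 Eight-point, 5-fold series starting at 10 uM (0.2% DMSO) applied for 16 h, 37 °C, to a WT-EGFR-knockout H1975 clone carrying only L858R/T790M. Lysates read by HTRF overnight. Degradation percentage relative to DMSO control fitted for DC50, with Dmax as maximum degradation.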

Compound	DC50 (EGFR (HCC827 cells))	Dmax (EGFR (HCC827 cells))	DC50 [1]	Dmax [2]	DC50 [2]	DC50 [3]	Dmax [3]	DTC Dmax (%) [1]
CCc1cc(Nc2ncc(Br)c(Nc3ccc4nccnc4c3P(C)(C)=O)n2)c(OC)cc1N1CCC(N2CCN(C3CC(c4ccc5c(c4)C(C)(C)C(=O)N5C4CCC(=O)NC4=O)C3)CC2)CC1 (centres unmarked) [Example 317, 3-(5-(3-(4-(1-(4-((5-bromo-4-((5-(dimethylphosphoryl)quinoxalin-6-yl)amino)pyrimidin-2-yl)amino)-2-ethyl-5-methoxyphenyl)piperidin-4-yl)piperazin-1-yl)cyclobutyl)-3,3-dimethyl-2-oxoindolin-1-yl)piperidine-2,6-dione]	0.779 nM	51.6%	5.17 nM	94.1%	9.47 nM	> 80 nM	47%	90.74%
CCc1cc(Nc2ncc(Br)c(Nc3ccc4nccnc4c3P(C)(C)=O)n2)c(OC)cc1N1CCC(N2CCN(CCc3ccc(C4CCC(=O)NC4=O)c(F)c3F)CC2)CC1 (centres unmarked) [Example 10, 3-(4-(2-(4-(1-(4-((5-bromo-4-((5-(dimethylphosphoryl)quinoxalin-6-yl)amino)pyrimidin-2-yl)amino)-2-ethyl-5-methoxyphenyl)piperidin-4-yl)piperazin-1-yl)ethyl)-2,3-difluorophenyl)piperidine-2,6-dione]	12.3 nM	83.3%	15.4 nM	88.7%	83.3 nM	15.9 nM	82.6%	85.51%
CCc1cc(Nc2ncc(Br)c(Nc3ccc4nccnc4c3P(C)(C)=O)n2)c(OC)cc1N1CCC(N2CCN(CCc3cccc4c3n(C)c(=O)n4C3CCC(=O)NC3=O)CC2)CC1 (centres unmarked) [Example 318, 3-(4-(2-(4-(1-(4-((5-bromo-4-((5-(dimethylphosphoryl)quinoxalin-6-yl)amino)pyrimidin-2-yl)amino)-2-ethyl-5-methoxyphenyl)piperidin-4-yl)piperazin-1-yl)ethyl)-3-methyl-2-oxo-2,3-dihydro-1H-benzo[d]imidazol-1-yl)piperidine-2,6-dione]	0.601 nM	85.2%	3.1 nM	93.3%	4.4 nM	2.14 nM	88.8%	91.99%
CCc1cc(Nc2ncc(Br)c(Nc3ccc4nccnc4c3P(C)(C)=O)n2)c(OC)cc1N1CCC(N2CCN(C[C@@H]3CCN(c4ccc(C5CCC(=O)NC5=O)cc4)C3)CC2)CC1 (stereo partly drawn) [Example 221, 3-(4-((S)-3-((4-(1-(4-((5-bromo-4-((5-(dimethylphosphoryl)quinoxalin-6-yl)amino)pyrimidin-2-yl)amino)-2-ethyl-5-methoxyphenyl)piperidin-4-yl)piperazin-1-yl)methyl)pyrrolidin-1-yl)phenyl)piperidine-2,6-dione]	5.15 nM	75.3%	15.7 nM	84.2%	36.1 nM	6.46 nM	61%	87.37%
CCc1cc(Nc2ncc(Br)c(Nc3ccc4nccnc4c3P(C)(C)=O)n2)c(OC)cc1N1CCC(N2CCN(C(=O)CC3CN(c4ccc5c(c4)C(=O)N(C4CCC(=O)NC4=O)C5=O)C3)CC2)CC1 (centres unmarked) [Example 222, 5-(3-(2-(4-(1-(4-((5-bromo-4-((5-(dimethylphosphoryl)quinoxalin-6-yl)amino)pyrimidin-2-yl)amino)-2-ethyl-5-methoxyphenyl)piperidin-4-yl)piperazin-1-yl)-2-oxoethyl)azetidin-1-yl)-2-(2,6-dioxopiperidin-3-yl)isoindoline-1,3-dione]	3.71 nM	78.5%	3.41 nM	75.6%	21.3 nM	7.03 nM	69%	83.72%

Continued, in another order:

DC50 (EGFR (HCC827 cells))	Dmax (EGFR (HCC827 cells))	DC50 [1]	Dmax [2]	DC50 [2]	DC50 [3]	Dmax [3]	Compound	DTC Dmax (%) [1]
5.43 nM	89%	6.97 nM	84.2%	24 nM	17.1 nM	84.6%	CCc1cc(Nc2ncc(Br)c(Nc3ccc4c(=O)n(C)ncc4c3P(C)(C)=O)n2)c(OC)cc1N1CCC(N2CCN(CCC3CCN(c4cc(F)c(C5CCC(=O)NC5=O)c(F)c4)CC3)CC2)CC1 (centres unmarked) [Example 270, 3-(4-(4-(2-(4-(1-(4-((5-bromo-4-((5-(dimethylphosphoryl)-2-methyl-1-oxo-1,2-dihydrophthalazin-6-yl)amino)pyrimidin-2-yl)amino)-2-ethyl-5-methoxyphenyl)piperidin-4-yl)piperazin-1-yl)ethyl)piperidin-1-yl)-2,6-difluorophenyl)piperidine-2,6-dione]	91.36%
6.2 nM	76.7%	4.71 nM	87.9%	13.3 nM	9.74 nM	74.8%	CCc1cc(Nc2ncc(Br)c(Nc3ccc4nccnc4c3P(C)(C)=O)n2)c(OC)cc1N1CCC(N2CCN(C(=O)C3CCN(c4ccc5c(c4)C(=O)N(C4CCC(=O)NC4=O)C5=O)CC3)CC2)CC1 (centres unmarked) [Example 67, 5-(4-(4-(1-(4-((5-bromo-4-((5-(dimethylphosphoryl)quinoxalin-6-yl)amino)pyrimidin-2-yl)amino)-2-ethyl-5-methoxyphenyl)piperidin-4-yl)piperazine-1-carbonyl)piperidin-1-yl)-2-(2,6-dioxopiperidin-3-yl)isoindoline-1,3-dione]	94.22%
2.69 nM	81.7%	6.95 nM	92.9%	18.1 nM	3.07 nM	76.8%	CCc1cc(Nc2ncc(Br)c(Nc3ccc4nccnc4c3P(C)(C)=O)n2)c(OC)cc1N1CCC(N2CCN(CC3CN(c4ccc5c(c4)CN(C4CCC(=O)NC4=O)C5=O)C3)CC2)CC1 (centres unmarked) [Example 160, 3-(5-(3-((4-(1-(4-((5-bromo-4-((5-(dimethylphosphoryl)quinoxalin-6-yl)amino)pyrimidin-2-yl)amino)-2-ethyl-5-methoxyphenyl)piperidin-4-yl)piperazin-1-yl)methyl)azetidin-1-yl)-1-oxoisoindolin-2-yl)piperidine-2,6-dione]	94.14%
4.59 nM	67%	6.37 nM	83.1%	18.6 nM	5.1 nM	72.8%	CCc1cc(Nc2ncc(Br)c(Nc3ccc4nccnc4c3P(C)(C)=O)n2)c(OC)cc1N1CCC(N2CCN(C(=O)[C@H]3C[C@H](N(C)c4ccc(C5CCC(=O)NC5=O)cc4)C3)CC2)CC1 (some centres unmarked) [Example 247, 3-(4-(((1r,3r)-3-(4-(1-(4-((5-bromo-4-((5-(dimethylphosphoryl)quinoxalin-6-yl)amino)pyrimidin-2-yl)amino)-2-ethyl-5-methoxyphenyl)piperidin-4-yl)piperazine-1-carbonyl)cyclobutyl)(methyl)amino)phenyl)piperidine-2,6-dione]	86.93%
3.14 nM	77.7%	4.98 nM	84.7%	15.9 nM	3.61 nM	75.5%	CCc1cc(Nc2ncc(Br)c(Nc3ccc4nccnc4c3P(C)(C)=O)n2)c(OC)cc1N1CCC(N2CCN(C(=O)C3CCN(c4cc(F)c(C5CCC(=O)NC5=O)c(F)c4)CC3)CC2)CC1 (centres unmarked) [Example 254, 3-(4-(4-(4-(1-(4-((5-bromo-4-((5-(dimethylphosphoryl)quinoxalin-6-yl)amino)pyrimidin-2-yl)amino)-2-ethyl-5-methoxyphenyl)piperidin-4-yl)piperazine-1-carbonyl)piperidin-1-yl)-2,6-difluorophenyl)piperidine-2,6-dione]	92.55%
